In ChEMBL document CHEMBL1201862, “PubChem BioAssay data set” (2004):
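Grown in 96-well plates, cells were treated for 48 hours with each compound at five concentrations. Insufficient inhibition: endpoint recorded as highest concentration tested. Here, GI50 denotes the concentration required for 50% inhibition of growth.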 The source made the active and inactive calls. No stated cut-off is given here; in the data, active = GI50 up to about 1.1 µM and inactive = higher.

Experiments:
Test in all cases: NCI-60 cell line screen, 48 h
786-0 = tested on: 786-0
A498 = tested on: A498
A549 = tested on: A549
ACHN = tested on: ACHN
BT-549 = tested on: BT-549
CAKI-1 = tested on: CAKI-1
CCRF-CEM = tested on: CCRF-CEM
COLO 205 = tested on: COLO 205
DU-145 = tested on: DU-145
EKVX = tested on: EKVX
HCC 2998 = tested on: HCC 2998
HCT-116 = tested on: HCT-116
HCT-15 = tested on: HCT-15
HL-60 = tested on: HL-60
HOP-62 = tested on: HOP-62
HOP-92 = tested on: HOP-92
HT-29 = tested on: HT-29
Hs-578T = tested on: Hs-578T
IGROV-1 = tested on: IGROV-1
K562 = tested on: K562
KM12 = tested on: KM12
LOX IMVI = tested on: LOX IMVI
M14 = tested on: M14
MCF7 = tested on: MCF7
MDA-MB-231 = tested on: MDA-MB-231
MDA-MB-435 = tested on: MDA-MB-435
MDA-N = tested on: MDA-N
MOLT-4 = tested on: MOLT-4
NCI-H226 = tested on: NCI-H226
NCI-H23 = tested on: NCI-H23
NCI-H460 = tested on: NCI-H460
NCI/ADR-RES = tested on: NCI/ADR-RES
OVCAR-3 = tested on: OVCAR-3
OVCAR-4 = tested on: OVCAR-4
OVCAR-5 = tested on: OVCAR-5
PC-3 = tested on: PC-3
RPMI-8226 = tested on: RPMI-8226
RXF 393 = tested on: RXF 393
SF-268 = tested on: SF-268
SF-295 = tested on: SF-295
SF-539 = tested on: SF-539
SK-MEL-28 = tested on: SK-MEL-28
SK-MEL-2 = tested on: SK-MEL-2
SK-OV-3 = tested on: SK-OV-3
SN12C = tested on: SN12C
SNB-19 = tested on: SNB-19
SNB-75 = tested on: SNB-75
SR = tested on: SR
SW-620 = tested on: SW-620
T47D = tested on: T47D
TK-10 = tested on: TK-10
U-251 = tested on: U-251
UACC-257 = tested on: UACC-257
UACC-62 = tested on: UACC-62
UO-31 = tested on: UO-31
Malme-3M = tested on: Malme-3M
NCI-H522 = tested on: NCI-H522
OVCAR-8 = tested on: OVCAR-8
SK-MEL-5 = tested on: SK-MEL-5

`N=C(N)NCCCC(NC(=O)OCCCCCCn1ccc(N)nc1=O)C(=O)O` (stereo unspecified) was tested, and the GI50 (786-0) was > 100 µM (inactive), the GI50 (A498) was > 100 µM (inactive) and the GI50 (A549) was > 100 µM (inactive). The GI50 (ACHN) was > 100 µM (inactive), the GI50 (BT-549) was > 100 µM (inactive) and the GI50 (CAKI-1) was > 100 µM (inactive). The GI50 (CCRF-CEM) was > 100 µM (inactive), the GI50 (COLO 205) was > 100 µM (inactive) and the GI50 (DU-145) was > 100 µM (inactive). For the same molecule, the GI50 (EKVX) was > 100 µM (inactive), the GI50 (HCC 2998) was > 100 µM (inactive) and the GI50 (HCT-116) was > 100 µM (inactive). The GI50 (HCT-15) was over 100 µM, the GI50 (HL-60) was > 100 µM (inactive) and the GI50 (HOP-62) was > 100 µM (inactive). The GI50 (HOP-92) was > 100 µM (inactive), the GI50 (HT-29) was > 100 µM (inactive) and the GI50 (Hs-578T) was > 100 µM (inactive). For the same molecule, the GI50 (IGROV-1) was > 100 µM (inactive), the GI50 (K562) was > 100 µM (inactive) and the GI50 (KM12) was > 100 µM (inactive). The GI50 (LOX IMVI) was > 100 µM (inactive), the GI50 (M14) was > 100 µM (inactive) and the GI50 (MCF7) was > 100 µM (inactive). The GI50 (MDA-MB-231) was > 100 µM (inactive), the GI50 (MDA-MB-435) was > 100 µM (inactive) and the GI50 (MDA-N) was > 100 µM (inactive). For the same molecule, the GI50 (MOLT-4) was > 100 µM (inactive), the GI50 (NCI-H226) was 0.418 µM (active) and the GI50 (NCI-H23) was > 100 µM (inactive). For the same molecule, the GI50 (NCI-H460) was > 100 µM (inactive), the GI50 (NCI/ADR-RES) was 4.75 µM (inactive) and the GI50 (OVCAR-3) was > 100 µM (inactive). The GI50 (OVCAR-4) was > 100 µM (inactive), the GI50 (OVCAR-5) was > 100 µM (inactive) and the GI50 (PC-3) was > 100 µM (inactive). For the same molecule, the GI50 (RPMI-8226) was > 100 µM (inactive), the GI50 (RXF 393) was > 100 µM (inactive) and the GI50 (SF-268) was > 100 µM (inactive). For the same molecule, the GI50 (SF-295) was > 100 µM (inactive), the GI50 (SF-539) was > 100 µM (inactive) and the GI50 (SK-MEL-28) was > 100 µM (inactive). For the same molecule, the GI50 (SK-MEL-2) was > 100 µM (inactive), the GI50 (SK-OV-3) was > 100 µM (inactive) and the GI50 (SN12C) was > 100 µM (inactive). For the same molecule, the GI50 (SNB-19) was > 100 µM (inactive), the GI50 (SNB-75) was > 100 µM (inactive) and the GI50 (SR) was > 100 µM (inactive). The GI50 (SW-620) was > 100 µM (inactive), the GI50 (T47D) was > 100 µM (inactive) and the GI50 (TK-10) was > 100 µM (inactive). For the same molecule, the GI50 (U-251) was > 100 µM (inactive), the GI50 (UACC-257) was > 100 µM (inactive) and the GI50 (UACC-62) was > 100 µM (inactive). The GI50 (UO-31) was > 100 µM (inactive).
With `Nc1ccccc1CCN1CCN(CCCc2ccccc2)CC1` the GI50 (786-0) was 31.7 µM (inactive), the GI50 (A498) was 74.5 µM (inactive) and the GI50 (A549) was 70.8 µM (inactive). For the same molecule, the GI50 (ACHN) was > 100 µM (inactive), the GI50 (BT-549) was > 100 µM (inactive) and the GI50 (CAKI-1) was 57.3 µM (inactive). For the same molecule, the GI50 (CCRF-CEM) was 46.1 µM (inactive), the GI50 (COLO 205) was 21 µM (inactive) and the GI50 (DU-145) was > 100 µM (inactive). For the same molecule, the GI50 (EKVX) was > 100 µM (inactive), the GI50 (HCC 2998) was 19.4 µM (inactive) and the GI50 (HCT-116) was 34.7 µM (inactive). The GI50 (HCT-15) was 33.2 µM, the GI50 (HL-60) was 17.8 µM (inactive) and the GI50 (HOP-62) was > 100 µM (inactive). For the same molecule, the GI50 (HT-29) was 21.4 µM (inactive), the GI50 (Hs-578T) was > 100 µM (inactive) and the GI50 (IGROV-1) was 50.6 µM (inactive). For the same molecule, the GI50 (K562) was 27.8 µM (inactive), the GI50 (KM12) was 52.1 µM (inactive) and the GI50 (LOX IMVI) was 34.4 µM (inactive). The GI50 (M14) was 17.3 µM (inactive), the GI50 (MCF7) was 46.8 µM (inactive) and the GI50 (MDA-MB-231) was 61.1 µM (inactive). For the same molecule, the GI50 (MDA-MB-435) was 72.4 µM (inactive), the GI50 (MDA-N) was 53 µM (inactive) and the GI50 (MOLT-4) was 53.3 µM (inactive). For the same molecule, the GI50 (Malme-3M) was 14.1 µM (inactive), the GI50 (NCI-H226) was 44.5 µM (inactive) and the GI50 (NCI-H23) was > 100 µM (inactive). The GI50 (NCI-H460) was 41.1 µM (inactive), the GI50 (NCI-H522) was 39.2 µM (inactive) and the GI50 (NCI/ADR-RES) was 90.4 µM (inactive). The GI50 (OVCAR-3) was > 100 µM (inactive), the GI50 (OVCAR-4) was 65.8 µM (inactive) and the GI50 (OVCAR-5) was > 100 µM (inactive). The GI50 (OVCAR-8) was 49.5 µM (inactive), the GI50 (PC-3) was 95.9 µM (inactive) and the GI50 (RPMI-8226) was 27.8 µM (inactive). The GI50 (SF-268) was 99.5 µM (inactive), the GI50 (SF-295) was 45.4 µM (inactive) and the GI50 (SF-539) was 39.2 µM (inactive). The GI50 (SK-MEL-28) was 97.7 µM (inactive), the GI50 (SK-MEL-2) was > 100 µM (inactive) and the GI50 (SK-MEL-5) was 17.9 µM (inactive). For the same molecule, the GI50 (SK-OV-3) was > 100 µM (inactive), the GI50 (SN12C) was 87.7 µM (inactive) and the GI50 (SNB-19) was > 100 µM (inactive). For the same molecule, the GI50 (SR) was 25.7 µM (inactive), the GI50 (SW-620) was 95.3 µM (inactive) and the GI50 (T47D) was 20.8 µM (inactive). For the same molecule, the GI50 (TK-10) was 91.2 µM (inactive), the GI50 (U-251) was > 100 µM (inactive) and the GI50 (UACC-257) was 32.5 µM (inactive). For the same molecule, the GI50 (UACC-62) was 84.3 µM (inactive) and the GI50 (UO-31) was 27.3 µM (inactive).
